Earlier results as cited in US7579333B2 (Teva Pharmaceutical Industries Ltd., priority 2004, dated 2009).

Experiments:
[1] = in vivo
[2] = test system: new vertebral fractures; details: post-menopausal women with osteoporosis
[3] = test system: femoral bone mass density; details: 1 year; 60 mg/day raloxifene, 10 mg/day alendronate; 331 patients

pH at which best absorbed [1]	SMILES	decrease in incidence of new vertebral fractures [2]	improvement in femoral bone mass density [3] [%]
~6	NCCCC(O)(P(=O)(O)O)P(=O)(O)O [alendronate]		
	O=C(c1ccc(OCCN2CCCCC2)cc1)c1c(-c2ccc(O)cc2)sc2cc(O)ccc12 [raloxifene]	30-50%	1.7
